Columns and labels:
Experiment in all cases: Post-Emergent Test I
Type in all cases: in vivo
Conditions in all cases: postemergence
[1] = tested on: AVEFA: wild oats (Avena fatua)
Protocol: (§1) Post-Emergent Test I Seeds test species were obtained from commercial suppliers and planted into a 13 centimeter (cm) diameter-round pot containing soil-less media mix (Metro-Mix 360®, Sun Gro Horticulture). Postemergence treatments were planted 8-12 days prior to application and cultured in a greenhouse equipped with supplemental light sources to provide a 16 hour (h) photoperiod at 24-29° C. All pots were surface irrigated.
(§2) A weighted amount, determined by the highest rate to be tested, of each compound was dissolved in 1.3 mL acetone-dimethyl sulfoxide (DMSO; 97:3, volume per volume (v/v)) and diluted with 4.1 mL water-isopropanol-crop oil concentrate (78:20:2, v/v/v) containing 0.02% Triton X-155 to obtain concentrated stock solutions. Additional application rates were obtained by serial dilution of the high rate solution into a solution containing appropriate volume of 97:3 v/v mixture of acetone and DMSO and appropriate volume of an aqueous mixture of water, isopropyl alcohol, crop oil concentrate (78:20:2, v/v/v) containing 0.02% Triton X-155.
(§3) Formulated compounds were applied using a DeVilbiss® compressed air sprayer at 2-4 pounds per square inch (psi). Following treatment, pots were returned to the greenhouse for the duration of the experiment. All pots were sub-irrigated as need to provide optimum growing conditions. All pots were fertilized one time per week by subirrigating with Peters Peat-Lite Special® fertilizer (20-10-20).
(§4) All evaluations were made visually on a scale of 0 to 100 where 0 represents no activity and 100 represents complete plant death and presented as indicated in Table A. Visual assessments of plant injury were made based on growth reduction, discoloration, leaf deformity and necrosis

[2] = tested on: HELAN: sunflower (Helianthus annuus)
Protocol: as §1, §2, §3, §4

[3] = tested on: SETFA: giant foxtail (Setaria faberi)
Protocol: as §1, §2, §3, §4

[4] = tested on: IPOSS (IPOHE: ivyleaf morningglory (Ipomoea hederecea))
Protocol: as §1, §2, §3, §4

[5] = tested on: ECHSS (ECHCG: barnyardgrass (Echinochloa crus-galli))
Protocol: as §1, §2, §3, §4

[6] = tested on: AMARE: redroot pigwseed (Amaranthus retroflexus)
Protocol: as §1, §2, §3, §4

SMILES	Visual Growth Reduction (%) 14 Days After Application, AVEFA ([1]; 4 kg ai/ha)	Visual Growth Reduction (%) 14 Days After Application, HELAN ([2]; 4 kg ai/ha)	Visual Growth Reduction (%) After Application, SETFA ([3]; 4 kg ai/ha)	Visual Growth Reduction (%) 14 Days After Application, IPOSS ([4]; 4 kg ai/ha)	Visual Growth Reduction (%) 14 Days After Application, ECHSS ([5]; 4 kg ai/ha)	Visual Growth Reduction (%) 14 Days After Application, AMARE ([6]; 4 kg ai/ha)	Visual Growth Reduction (%) 14 Days After Application, AVEFA ([1]; 3.8 kg ai/ha)	Visual Growth Reduction (%) 14 Days After Application, HELAN ([2]; 3.8 kg ai/ha)	Visual Growth Reduction (%) After Application, SETFA ([3]; 3.8 kg ai/ha)	Visual Growth Reduction (%) 14 Days After Application, IPOSS ([4]; 3.8 kg ai/ha)	Visual Growth Reduction (%) 14 Days After Application, ECHSS ([5]; 3.8 kg ai/ha)	Visual Growth Reduction (%) 14 Days After Application, AMARE ([6]; 3.8 kg ai/ha)
COC(=O)c1nc(-c2ccc(C(F)(F)F)nc2)cc(N)c1Cl [Compound 4]	B (85-94)	A (95-100)	A (95-100)	A (95-100)	C (75-84)	A (95-100)	–	–	–	–	–	–
COC(=O)c1nc(-c2ccc(Cl)nc2F)cc(N)c1Cl [Compound 17, methyl 4-amino-5,6′-dichloro-2′-fluoro-[2,3′-bipyridine]-6-carboxylate]	–	–	–	–	–	–	F (30-44)	A (95-100)	B (85-94)	A (95-100)	F (30-44)	C (75-84)

Reference: patent US10765114B2, “4-amino-6-(pyridyl and 2-substitutedphenyl)-picolinates and 6-amino-2-(pyridyl and 2-substitutedphenyl)-pyrimidine-4-carboxylates and their use as herbicides” (Dow AgroSciences LLC, priority 2013, dated 2020)
